Test results published in patent publication US12233044B2, “Cannabidiol and chitosan compositions and methods of using the same” (priority 2017, dated 2025).
Values joined by “and” are separate entries in the source; they are usually repeats but may differ in a detail not shown here. Equal entries are not always repeated.

Legend:
[1] = Guinea pig induced dyslipidemia model, body weight gain; assay type: in vivo
Experimental: The objective of this research was to examine the cholesterol blood levels of guinea pigs, fed ad libitum a high-level fat diet rich in lauric and myristic acids alone or in combination with various formulations.
“Day 0” was initiation of the Study period, animals received regular guinea pig diet. Day 3 the animals were subjected to blood withdrawal and subsequently the first day of supplying the fattening diet. On day 11 chitosan diet was administered to the relevant group. On day 24 CBD diet and CBD chitosan diet were administered until day 27.
Determination of individual body weights of animals was conducted once weekly during the entire study.

[2] = test system: Triglyceride levels in the serum; test: Guinea pig induced dyslipidemia model, serum triglycerides; assay type: in vivo
Experimental: The blood cholesterol and triglycerides were examined in male guinea pigs, following an oral administration of the various formulations in correlation to the Controlled group.
Measurement of cholesterol, and Triglyceride levels in the serum were performed following a 7-10 day of exposure to the different diets.
Day 3 all animals; Day 11 all animals; Day 24 all animals; Day 27 CBD, CNTL-fattening and CBD-chitosan group.
The blood collection tubes (BD 367955) were specialized for serum separation, containing a clot activator and a gel which separates the cell content (pellet) from the serum (supernatant) after centrifugation. Blood samples of ˜0.5 mL/animal were collected into the pre-marked tubes (study code, animal number and date). At all times blood was collected under anesthesia: Ketamine 20-40 mg/kg & Diazepam 1-2 mg/kg IM. Blood collection of all animals was performed via the periorbital eye venous plexus puncture.
Blood samples were left at room temperature for at least 45 minutes, and subsequently centrifuged ([…], 1790 g, 10 min/RT) for serum separation and left in the specialized tubes with the gel partitioning the separated serum and cell content. The samples were transferred as such to AML.
Following serum separation, the samples were kept at 2-8° C. until transferred to AML, for blood lipid profile analysis (cholesterol, LDL, HDL and Triglyceride levels). Sample transfer was via wet ice packed in Styrofoam boxes and transferred within 1-2 hours from blood separation.

Q: With `C=C(C)[C@@H]1CCC(C)=C[C@H]1c1c(O)cc(CCCCC)cc1O` [CBD, Cannabidiol] as the compound, how does the “Change in Weight by group, Mean” value ([1]; change in weight during treatment, group mean, N 15) read?
A: Its value is 58.8.

Q: And the “Mean difference, Change in Weight by group” value ([1]; contrast CBD - CHIT)?
A: Its value is 34.5.

Q: What about the “Mean difference, Change in Weight by group” value ([1]; contrast CNTL - CBD) of the same compound?
A: Its value is 6.0.

Q: What about the “Mean difference, DELTA WEIGHT second phase” value ([1]; contrast CNTL - CBD) of the same compound?
A: Its value is 2.8.

Q: And the “DELTA WEIGHT, Second phase Group” value ([1]; individual animals, second phase treatment)?
A: Its value is 108.00 and 133.00 and 157.00 and 130.00.

Q: What about the “DELTA WEIGHT by Second phase Group, Mean” value ([1]; study initiation to after second phase treatment, group mean) of the same compound?
A: Its value is 132.0.

Q: What about the “Mean difference, TG delta 27 D to 10 D” value ([2]; contrast CNTL - CBD CNTL) of the same compound?
A: The value was 28.3.

Q: What about the “TG delta 27 D to 10 D by group second phase, Mean” value ([2]; group mean) of the same compound?
A: The value was −33.0.

Q: What about the “Triglycerides lowering effect (in words)” value ([2]; guinea pig, in vivo) of the same compound?
A: The value was “lower TG values”.

Q: And the “Difference in triglycerides versus CNTL group” value ([2]; significance)?
A: The value was “not significant”.
